These compounds were tested against T1, KRAS G12C 1-169, his-tagged protein, GDP-loaded (Homo sapiens, UniProt P01116, G12C) (assay: Biochemical assay: covalent binding to KRAS G12C analyzed by mass spectrometry). Settings: compounds 1-47, measured at 24 h.
T1 construct: KRAS G12C 1-169, his-tagged protein, GDP-loaded
T1 sequence (P01116 1-169 isoform P01116-2 G12C): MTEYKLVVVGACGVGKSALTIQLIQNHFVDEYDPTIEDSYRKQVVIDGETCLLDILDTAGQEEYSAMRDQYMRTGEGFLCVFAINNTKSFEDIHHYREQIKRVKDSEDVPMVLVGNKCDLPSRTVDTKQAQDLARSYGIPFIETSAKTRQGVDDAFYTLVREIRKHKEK
Method: Compounds were tested for activity as follows:
Compounds were diluted to 50× final test concentration in DMSO in 96-well storage plates. […] Reactions were mixed carefully and thoroughly by pipetting up/down with a 200 μl multi-channel pipettor. […] 5 μl of 2% formic acid (Fisher cat#A117) in DI H2O was then added to each well followed by mixing with a pipette. The plate was then resealed with aluminum seal and stored on dry ice until analyzed as described below.
The above described assays were analyzed by mass spectrometry according to the following procedure:
The MS instrument is set to positive polarity, 2 GHz resolution, and low mass (1700) mode and allowed to equilibrate for 30 minutes. The instrument is then calibrated, switched to acquisition mode and the appropriate method loaded.
After another 30 minute equilibration time, a blank batch (i.e., buffer) is run to ensure equipment is operating properly. The samples are thawed at 37° C. for 10 minutes, briefly centrifuged, and transfer to the bench top. Wells A1 and H12 are spiked with 1 μL 500 μM internal standard peptide, and the plates centrifuged at 2000×g for 5 minutes. The method is then run and masses of each individual well recorded.
The masses (for which integration data is desired) for each well are pasted into the platemap and exported from the analysis. Masses for the internal standards are exported as well. The data at 50 ppm is extracted for the +19 charge state, and identity of well A1 is assigned using the internal standard spike and integrated. Peak data is exported as a TOF list and the above steps are repeated individually, for the +20, 21, 22, 23, 24, and 25 charge states.
For `C=CC(=O)N1CCN(c2ncnc3[nH]cc(-c4ccccc4Cl)c23)CC1` [Compound I-28, 1-(4-(5-(2-chlorophenyl)-7H-pyrrolo[2,3-d]pyrimidin-4-yl)piperazin-1-yl)prop-2-en-1-one], the Binding % was “+ (+indicates binding activity from 5% to 25%)”.

Same assay, conditions: compounds 48-246, measured at 2 h
With `C=CC(=O)N1CCN(c2ncnc3cc(-c4ccc(F)cc4C(F)(F)F)c(Cl)cc23)CC1` [Compound I-119, 1-(4-(6-chloro-7-(4-fluoro-2-(trifluoromethyl)phenyl)quinazolin-4-yl)piperazin-1-yl)prop-2-en-1-one] the Binding % was “+++ (+++indicates binding activity greater than 50% and up to 75%)”.
`C=CC(=O)N1CCN(c2ncnc3cc(-c4cccs4)c(Cl)cc23)CC1` [Compound I-185, 1-(4-(6-chloro-7-(thiophen-2-yl)quinazolin-4-yl)piperazin-1-yl)prop-2-en-1-one] was tested, and the Binding % was “++ (++indicates binding activity greater than 25% and up to 50%)”.
In the case of `C=CC(=O)N1CCN(c2ncnc3cc(-c4ccccc4C(C)C)c(Cl)cc23)CC1` [Compound I-99, 1-(4-(6-chloro-7-(2-isopeopylphenyl)quinazolin-4-yl)piperazin-1-yl)prop-2-en-1-one], the Binding % is reported as “+++ (+++indicates binding activity greater than 50% and up to 75%)”.
For `C=CC(=O)N1CCN(c2ncnc3cc(-c4ccc5oc(N)nc5c4)c(Cl)cc23)CC1` [Compound I-164, 1-(4-(7-(2-aminobenzo[d]oxazol-5-yl)-6-chloroquinazolin-4-yl)piperazin-1-yl)prop-2-en-1-one], the Binding % was “+ (+indicates binding activity from 5% to 25%)”.
In the case of `C=CC(=O)N1CCN(c2ncnc3cc(-c4ccccc4CC#N)c(Cl)cc23)CC1` [Compound I-168, 2-(2-(4-(4-acryloylpiperazin-1-yl)-6-chloroquinazolin-7-yl)phenyl)acetonitrile], the Binding % is reported as “++ (++indicates binding activity greater than 25% and up to 50%)”.
In the case of `C=CC(=O)N1CCN(c2nccc3cc(-c4ccccc4)c(Cl)cc23)CC1` [Compound I-88, 1-(4-(7-chloro-6-phenylisoquinolin-1-yl)piperazin-1-yl)prop-2-en-1-one], the Binding % is reported as “+ (+indicates binding activity from 5% to 25%)”.
For `C=CC(=O)N1CCN(c2ncnc3cc(-c4c(F)cccc4C#N)c(Cl)cc23)CC1` [Compound I-192, 2-(4-(4-acryloylpiperazin-1-yl)-6-chloroquinazolin-7-yl)-3-fluorobenzonitrile], the Binding % was “++ (++indicates binding activity greater than 25% and up to 50%)”.
In the case of `C=CC(=O)N1CCN(c2c(C#N)cnc3cc(-c4ccccc4F)c(Cl)cc23)CC1` [Compound I-127], the Binding % is reported as “++++ (++++indicates binding activity greater than 75%)”.
With `C=CC(=O)N1CC(N2CCN(C(=O)OC(C)(C)C)CC2)C1` [Example 50, tert-butyl 4-(1-acryloylazetidin-3-yl)piperazine-1-carboxylate] the Binding % was “+ (+indicates binding activity from 5% to 25%)”.
`C=CC(=O)N1CCN(c2ncnc3c(Cl)c(-c4ccccc4F)c(Cl)cc23)CC1` [Compound I-210, 1-(4-(6,8-dichloro-7-(2-fluorophenyl)quinazolin-4-yl)piperazin-1-yl)prop-2-en-1-one] was tested, and the Binding % was “++++ (++++indicates binding activity greater than 75%)”.
For `C=CC(=O)N1CCN(c2ncnc3cc(Cl)c(-c4ccc(Cl)cc4)cc23)C[C@H]1C#N` [Compound I-59, (S)-1-acryloyl-4-(7-chloro-6-(4-chlorophenyl)quinazolin-4-yl)piperazine-2-carbonitrile], the Binding % was “++++ (++++indicates binding activity greater than 75%)”.
`C=CC(=O)N1CCN(c2ncnc3cc(-c4ccnc5ccccc45)c(Cl)cc23)CC1` [Compound I-214, 1-(4-(6-chloro-7-(quinolin-4-yl)quinazolin-4-yl)piperazin-1-yl)prop-2-en-1-one] was tested, and the Binding % was “+ (+indicates binding activity from 5% to 25%)”.
`C=CC(=O)NC1CCN(c2ncnc3cc(-c4ccccc4)c(Cl)cc23)CC1` [Compound I-89, N-(1-(6-chloro-7-phenylquinazolin-4-yl)piperidin-4-yl)acrylamide] was tested, and the Binding % was “+ (+indicates binding activity from 5% to 25%)”.
For `C=CC(=O)N1CCN(c2ncnc3cc(-c4cccc5ccc(=O)[nH]c45)c(Cl)cc23)CC1` [Compound I-240, 8-(4-(4-acryloylpiperazin-1-yl)-6-chloroquinazolin-7-yl)quinolin-2(1H)-one], the Binding % was “+++ (+++indicates binding activity greater than 50% and up to 75%)”.

Same assay, conditions: compounds 247-342, measured at 30 min
In the case of `C=CC(=O)N1CCN(c2ncnc3c(F)c(-c4cc(C(F)F)ccc4F)c(Cl)cc23)CC1` [Compound 307, 1-(4-(6-chloro-7-(5-(difluoromethyl)-2-fluorophenyl)-8-fluoroquinazolin-4-yl)piperazin-1-yl)prop-2-en-1-one], the Binding % is reported as “++ (++indicates binding activity greater than 25% and up to 50%)”.
For `C=CC(=O)N1CCN(c2ncnc3c(F)c(-c4c(F)ccc(F)c4O)c(Cl)cc23)CC1` [Compound I-277, 1-(4-(6-chloro-7-(3,6-ddifluoro-2-hydroxyphenyl)-8-fluoroquinazolin-4-yl)piperazin-1-yl)prop-2-en-1-one], the Binding % was “+ (+indicates binding activity from 5% to 25%)”.
For `Cc1ccc2[nH]ncc2c1-c1c(Cl)cc2c(N3CCN(C(=O)/C=C/CN(C)C)CC3)nc(-c3cncs3)nc2c1F` [Compound 333, (E)-1-(4-(6-chloro-8-fluoro-7-(5-methyl-1H-indazol-4-yl)-2-(thiazol-5-yl)quinazolin-4-yl)piperazin-1-yl)-4-(dimethylamino)but-2-en-1-one], the Binding % was “+ (+indicates binding activity from 5% to 25%)”.
In the case of `C=CC(=O)N1CCN(c2c(C#N)cnc3c(F)c(-c4c(O)ccc5ccccc45)c(Cl)cc23)CC1` [Compound I-269, 4-(4-acryloylpiperazin-1-yl)-6-chloro-8-fluoro-7-(2-hydroxynaphthalen-1-yl)quinoline-3-carbonitrile], the Binding % is reported as “+++ (+++indicates binding activity greater than 50% and up to 75%)”.
`O=C(C#CCO)N1CCN(c2ncnc3cc(-c4ccc(F)cc4F)c(Cl)cc23)CC1` [Compound I-247, 1-(4-(6-chloro-7-(2,4-difluorophenyl)quinazolin-4-yl)piperazain-1-yl)-4-hydoxybut-2-yn-1-one] was tested, and the Binding % was “+++ (+++indicates binding activity greater than 50% and up to 75%)”.
For `Cc1ccc2[nH]ncc2c1-c1c(Cl)cc2c(N3CCN(C(=O)/C=C/CN(C)C)CC3)ncnc2c1F` [Compound I-295, (E)-1-(4-(6-chloro-8-fluoro-7-(5-methyl-1H-indazol-4-yl)quinazolin-4-yl)piperazin-1-yl)-4-(dimethylamino)but-2-en-1-one], the Binding % was “+ (+indicates binding activity from 5% to 25%)”.
In the case of `C=CC(=O)N1CCN(c2ncnc3c(F)c(-c4ccc(F)cc4F)c(F)cc23)CC1` [Compound 296], the Binding % is reported as “+ (+indicates binding activity from 5% to 25%)”.
With `C=CC(=O)N1CCN(c2nc(NC)nc3c(F)c(-c4c(C)ccc5[nH]ncc45)c(Cl)cc23)CC1` [Compound I-257, 1-(4-(6-chloro-8-fluoro-7-(5-methyl-1H-indazol-4-yl)-2-(methylamino)quinazolin-4-yl)piperazin-1-yl)prop-2-en-1-one] the Binding % was “++++ (++++indicates binding activity greater than 75%)”.
In the case of `N#C/C(=C\c1ccccn1)C(=O)N1CCN(c2ncnc3c(F)c(-c4c(O)cccc4F)c(Cl)cc23)CC1` [Compound I-284, (E)-2-(4-(6-chloro-8-fluoro-7-(2-fluoro-6-hydroxyphenyl)quinazolin-4-yl)piperazine-1-carbonyl)-3-(pyridin-2-yl)acrylonitrile], the Binding % is reported as “++++ (++++indicates binding activity greater than 75%)”.

Same assay, conditions: determined at 2 hrs
For `C=CC(=O)N1CC(N2CCN(C(=O)C3CCCN3c3cc(C4CC4)c(Cl)cc3OC)CC2)C1` (centres unmarked) [II-73, 1-(3-(4-(1-(4-chloro-5-cyclopropyl-2-methoxyphenyl)-pyrrolidine-2-carbonyl)piperazin-1-yl)azetidin-1-yl)prop-2-en-1-one], the Binding % was “+ (+indicates binding activity from 5% to 20%)”.

Same assay, conditions: determined at 24 hrs
For `C=CC(=O)N1CC(N2CCN(C(=O)CNc3cc(C4CC4)c(Cl)cc3O)CC2)C1` [II-35, 1-(3-(4-(2-(4-chloro-5-cyclopropyl-2-hydroxyphenyl-amino)acetyl)piperazin-1-yl)azetidin-1-yl)prop-2-en-1-one], the Binding % was “++++ (++++indicates binding activity greater than 50%)”.
For `C=CC(=O)N1CC(N2CCN(C(=O)CNc3cc(Cl)c(Cl)cc3O)CC2)C1` [II-1, 1-(3-(4-(2-(4,5-dichloro-2-hydroxyphenyl-amino)acetyl)-piperazin-1-yl)azetidin-1-yl)prop-2-en-1-one], the Binding % was “++++ (++++indicates binding activity greater than 50%)”.
For `C=CC(=O)N1CC(N2CCC(C(=O)NCc3cc(Cl)c(Cl)cc3O)CC2)C1` [II-17, 1-(1-acryloylazetidin-3-yl)-N-(4,5-dichloro-2-hydroxybenzyl)piperidine-4-carboxamide], the Binding % was “++ (++indicates binding activity greater than 15% and up to 25%)”.
For `C=CC(=O)N1CC(N2CCN(C(=O)CCn3c(=O)[nH]c4cc(Cl)c(Cl)cc43)CC2)C1` [II-21, 1-(3-(4-(1-acryloylazetidin-3-yl)piperazin-1-yl)-3-oxopropyl)-5,6-dichloro-1H-benzo[d]imidazol-2(3H)-one], the Binding % was “+ (+indicates binding activity from 5% to 15%)”.

— patent US10111874B2, “Combination therapies for treatment of cancer” (Araxes Pharma LLC, priority 2014, dated 2018)
